In general, IC50 refers to the concentration needed to halve the response being measured. Read a high IC50 as lower potency.

This is an account of results in ChEMBL document CHEMBL1134003, “7-Pyrrolidinyl- and 7-piperidinyl-5-aryl-pyrrolo[2,3-d]pyrimidines--potent inhibitors of the tyrosine kinase c-Src” (Bioorg Med Chem Lett, 2001).

The target in assay [1] is T1, Epidermal growth factor receptor (Homo sapiens, UniProt P00533). Briefly: Concentration required for inhibition of epidermal growth factor receptor (EGF-R) by tyrosine kinase enzyme activity.
T1 sequence (P00533 whole entry): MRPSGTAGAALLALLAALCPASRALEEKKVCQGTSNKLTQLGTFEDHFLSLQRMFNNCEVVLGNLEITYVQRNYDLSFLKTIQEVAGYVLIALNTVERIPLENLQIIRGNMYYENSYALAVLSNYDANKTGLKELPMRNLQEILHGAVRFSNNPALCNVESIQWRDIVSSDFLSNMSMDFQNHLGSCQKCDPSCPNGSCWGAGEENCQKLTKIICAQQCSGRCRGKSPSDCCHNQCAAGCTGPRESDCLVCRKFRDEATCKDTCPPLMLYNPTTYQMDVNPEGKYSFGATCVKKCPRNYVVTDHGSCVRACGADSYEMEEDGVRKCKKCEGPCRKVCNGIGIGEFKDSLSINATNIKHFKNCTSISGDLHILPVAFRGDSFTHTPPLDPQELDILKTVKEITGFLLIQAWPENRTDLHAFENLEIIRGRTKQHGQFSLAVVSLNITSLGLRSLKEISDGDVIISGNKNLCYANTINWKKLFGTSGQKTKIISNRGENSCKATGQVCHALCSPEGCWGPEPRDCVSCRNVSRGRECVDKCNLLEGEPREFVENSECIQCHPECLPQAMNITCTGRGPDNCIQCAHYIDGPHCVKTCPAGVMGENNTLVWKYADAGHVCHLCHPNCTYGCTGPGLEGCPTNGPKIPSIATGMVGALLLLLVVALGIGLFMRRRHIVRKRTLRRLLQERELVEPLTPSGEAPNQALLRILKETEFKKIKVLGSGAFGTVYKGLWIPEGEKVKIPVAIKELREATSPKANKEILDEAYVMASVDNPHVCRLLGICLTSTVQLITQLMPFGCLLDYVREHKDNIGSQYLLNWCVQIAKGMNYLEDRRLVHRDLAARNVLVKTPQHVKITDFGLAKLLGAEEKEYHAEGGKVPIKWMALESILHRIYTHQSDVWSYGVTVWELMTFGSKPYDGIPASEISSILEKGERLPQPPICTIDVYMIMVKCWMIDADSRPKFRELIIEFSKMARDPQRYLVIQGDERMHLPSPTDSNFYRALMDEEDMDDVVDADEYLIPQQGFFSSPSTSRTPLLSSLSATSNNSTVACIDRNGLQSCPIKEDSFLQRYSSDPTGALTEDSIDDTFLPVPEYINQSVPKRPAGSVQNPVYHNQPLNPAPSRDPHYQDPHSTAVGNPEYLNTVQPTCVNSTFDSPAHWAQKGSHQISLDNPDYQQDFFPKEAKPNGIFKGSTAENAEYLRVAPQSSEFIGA
For assay [2], the target named is Proto-oncogene tyrosine-protein kinase Src (Gallus gallus, UniProt P00523). Briefly: Concentration required for inhibition of c-Src mediated phosphorylation of Fak in IC8.1 fibroblast cell assay. Type of assay: functional, cell-based.
Assay [3] has as its target Proto-oncogene tyrosine-protein kinase Src (Homo sapiens, UniProt P12931). Briefly: Inhibition of p60 c-Src tyrosine kinase enzyme activity in liquid-phase tyrosine phosphorylation assay at 830 ng/mL.
Assay [4] addresses T2, Tyrosine-protein kinase ABL (Homo sapiens, UniProt P00519+P42684).
Description: Concentration required for inhibition of v-Abl receptor by tyrosine kinase enzyme assay
For assay [5], the target named is T1, Epidermal growth factor receptor. Briefly: Inhibition of autophosphorylation of epidermal growth factor receptor (EGF-R) in a cellular assay.
The target is the same in assay [6]. As to the kind of experiment: Inhibition of epidermal growth factor receptor (EGF-R).
For assay [7], the target named is T2, Tyrosine-protein kinase ABL. Briefly: Inhibition of v-Abl receptor tyrosine kinase enzyme activity. Type of assay: protein assay.

Sequence of Proto-oncogene tyrosine-protein kinase Src (Homo sapiens, UniProt P12931) (P12931 2-536 limits assumed): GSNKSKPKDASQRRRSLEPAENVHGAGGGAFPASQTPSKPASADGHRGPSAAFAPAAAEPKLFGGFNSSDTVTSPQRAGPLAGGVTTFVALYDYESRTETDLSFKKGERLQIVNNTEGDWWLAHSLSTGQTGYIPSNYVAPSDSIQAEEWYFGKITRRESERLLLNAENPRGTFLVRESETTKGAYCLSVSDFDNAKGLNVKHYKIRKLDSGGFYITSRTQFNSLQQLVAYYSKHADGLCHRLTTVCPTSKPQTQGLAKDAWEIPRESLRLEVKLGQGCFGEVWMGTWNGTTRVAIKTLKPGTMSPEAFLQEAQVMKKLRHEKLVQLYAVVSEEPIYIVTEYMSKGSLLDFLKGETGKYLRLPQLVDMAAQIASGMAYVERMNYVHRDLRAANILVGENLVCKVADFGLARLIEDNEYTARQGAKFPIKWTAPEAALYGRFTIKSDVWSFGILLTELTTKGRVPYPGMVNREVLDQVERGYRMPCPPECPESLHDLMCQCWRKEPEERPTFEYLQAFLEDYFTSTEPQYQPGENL

As to `Nc1ncnc2c1c(-c1ccc(O)cc1)cn2C1CCNC1` (stereo not drawn), the IC50 in assay [1] was found to be 2670 nM; in assay [2], 2700 nM; in assay [3] it was 37 nM; in assay [4], 2800 nM.

As to `COC(=O)CN1CCC(n2cc(-c3cccc(OC)c3)c3c(N)ncnc32)C1` (stereo not drawn), the IC50 in assay [2] was above 5000 nM; in assay [3], 50 nM; in assay [4], 590 nM.

On to `COC(=O)CN1CCC(n2cc(-c3cccc(OC)c3)c3c(N)ncnc32)CC1`, for which the results for the IC50 in assay [2], in assay [3] and in assay [4] were 2800 nM, 84 nM and 1000 nM, respectively.

For the compound `CN(C)C(=O)CN1CCC(n2cc(-c3cccc(O)c3)c3c(N)ncnc32)CC1`, the IC50 in assay [1] is 500 nM; in assay [5] it was above 10000 nM; in assay [3] it was 3 nM; in assay [4] it was 120 nM.

In the case of `Nc1ncnc2c1c(-c1ccc(O)cc1)cn2[C@H]1CNC(CO)C1` (single isomer, unassigned), the concentration for half-maximal inhibition (IC50) is above 5000 nM in assay [2] and 50 nM in assay [3].

`COc1cccc(-c2cn(C3CCN(C(=O)OC(C)(C)C)C3)c3ncnc(N)c23)c1` (stereo not drawn): the IC50 in assay [1] was found to be 2100 nM; in assay [2], 4400 nM; in assay [3], 270 nM; in assay [4], 2400 nM.

As for `CC(C)(C)OC(=O)N1CCC(n2cc(-c3ccc(O)cc3)c3c(N)ncnc32)C1` (stereo not drawn), the IC50 in assay [2] was 400 nM; in assay [3] it was 8 nM.

`CCOC(=O)C[C@H]1C[C@@H](n2cc(-c3ccc(O)cc3)c3c(N)ncnc32)CN1C(=O)OC(C)(C)C` displayed an IC50 in assay [3] of 300 nM.

For `CC(C)(C)OC(=O)N1C[C@H](n2cc(-c3ccccc3)c3c(N)ncnc32)C[C@@H]1CO`, it took 2000 nM to reach half-maximal inhibition in assay [3] (IC50).

Compound `CCOC(=O)C[C@H]1C[C@H](n2cc(-c3ccccc3)c3c(N)ncnc32)CN1` displayed an IC50 in assay [3] of 600 nM.

As for `NC(=O)CN1CCC(n2cc(-c3cccc(O)c3)c3c(N)ncnc32)C1` (stereo not drawn), the IC50 in assay [1] is 400 nM; in assay [5], above 10000 nM; in assay [3], 4 nM; in assay [4], 150 nM.

Consider `COc1cccc(-c2cn(C3CCN(CC(N)=O)C3)c3ncnc(N)c23)c1` (stereo not drawn), for which the IC50 was 440 nM in assay [1], above 5000 nM in assay [2], 38 nM in assay [3] and 700 nM in assay [4].

Turning to `CCOC(=O)C[C@H]1C[C@H](n2cc(-c3ccc(O)cc3)c3c(N)ncnc32)CN1C(=O)OC(C)(C)C`, the IC50 in assay [2] turned out to be 700 nM; in assay [3] it was 35 nM.

As for `COc1cccc(-c2cn(C3CCN(CCN(C)CCO)CC3)c3ncnc(N)c23)c1`, the IC50 in assay [1] came to 295 nM; in assay [5], 7800 nM; in assay [2], 600 nM; in assay [3], 6 nM; in assay [4] it was 360 nM.

Regarding `Nc1ncnc2c1c(-c1ccc(O)cc1)cn2C1CN[C@@H](CO)C1` (single isomer, unassigned), the IC50 was above 5000 nM in assay [2] and 95 nM in assay [3].

Regarding `CC(C)(C)OC(=O)N1CCC(n2cc(-c3cccc(O)c3)c3c(N)ncnc32)C1` (stereo not drawn), the IC50 is 2200 nM in assay [1]; above 10000 nM in assay [5]; 3100 nM in assay [2]; 5 nM in assay [3]; 58 nM in assay [4].

As for `CC(C)(C)OC(=O)N1C[C@@H](n2cc(-c3ccccc3)c3c(N)ncnc32)C[C@@H]1CO`, in assay [3], the midpoint of inhibition, the IC50, lay at 130 nM.

With `COc1cccc(-c2cn(C3CCN(CCO)CC3)c3ncnc(N)c23)c1`, the IC50 in assay [1] was 900 nM; in assay [5] it was above 10000 nM; in assay [2], 1400 nM; in assay [3] it was 27 nM; in assay [4] it was 1030 nM.

In the case of `Nc1ncnc2c1c(-c1cccc(O)c1)cn2C1CCN(CCO)CC1`, the concentration for half-maximal inhibition (IC50) was 2540 nM in assay [1]; above 10000 nM in assay [5]; 600 nM in assay [2]; 1 nM in assay [3]; 98 nM in assay [4].

As to `CC(C)(C)OC(=O)N1C[C@H](n2cc(-c3ccc(O)cc3)c3c(N)ncnc32)C[C@@H]1CO`, half-maximal inhibition in assay [3] (IC50) required 350 nM.

`CCOC(=O)C[C@H]1C[C@@H](n2cc(-c3ccccc3)c3c(N)ncnc32)CN1`: the IC50 in assay [2] is above 5000 nM; in assay [3], 15 nM.

Turning to `COc1cccc(-c2cn(C3CCN(CC(N)=O)CC3)c3ncnc(N)c23)c1`, the IC50 in assay [1] came to 350 nM; in assay [2], 700 nM; in assay [3], 22 nM; in assay [4] it was 550 nM.

Turning to `CCOC(=O)C[C@H]1C[C@H](n2cc(-c3ccc(O)cc3)c3c(N)ncnc32)CN1`, in assay [3], 100 nM corresponded to half-maximal inhibition (IC50).

With `COc1ccc(-c2cn(C3CCN(C(=O)OC(C)(C)C)C3)c3ncnc(N)c23)cc1` (stereo not drawn), the half-maximal inhibitory concentration (IC50) in assay [2] and in assay [3] was 400 nM throughout.

`COc1cccc(-c2cn(C3CCNC3)c3ncnc(N)c23)c1` (stereo not drawn): the IC50 in assay [1] is 1120 nM; in assay [2], above 5000 nM; in assay [3], 53 nM; in assay [4], 1400 nM.

With `NC(=O)CN1CCC(n2cc(-c3cccc(O)c3)c3c(N)ncnc32)CC1`, the IC50 in assay [1] is 170 nM; in assay [5], above 10000 nM; in assay [2], 800 nM; in assay [3] it was 1 nM; in assay [4] it was 210 nM.

`COC(=O)CN1CCC(n2cc(-c3cccc(O)c3)c3c(N)ncnc32)C1` (stereo not drawn): the IC50 is 740 nM in assay [1]; above 10000 nM in assay [5]; 700 nM in assay [2]; 3 nM in assay [3]; 54 nM in assay [4].

`COCCNCCN1CCC(n2cc(-c3cccc(OC)c3)c3c(N)ncnc32)CC1`: the IC50 in assay [6] was 310 nM; in assay [5] it was above 10000 nM; in assay [2] it was 290 nM; in assay [3] it was 15 nM; in assay [7] it was 310 nM.

On to `Nc1ncnc2c1c(-c1cccc(O)c1)cn2C1CCNC1` (stereo not drawn), for which the IC50 is 1530 nM in assay [1]; above 10000 nM in assay [5]; 800 nM in assay [2]; 6 nM in assay [3]; 290 nM in assay [4].

In assay [3], `Nc1ncnc2c1c(-c1ccccc1)cn2C1CCNC1` (stereo not drawn) had an IC50 of 230 nM.

`COc1ccc(-c2cn(C3CCNC3)c3ncnc(N)c23)cc1` (stereo not drawn): 300 nM corresponded to half-maximal inhibition in assay [3] (IC50).

In assay [3], `Nc1ncnc2c1c(-c1ccccc1)cn2[C@H]1CN[C@@H](CO)C1` displayed an IC50 of 130 nM.

In the case of `CCOC(=O)C[C@H]1C[C@@H](n2cc(-c3ccc(O)cc3)c3c(N)ncnc32)CN1`, the IC50 in assay [2] is 3300 nM; in assay [3], 5 nM.

As for `CC(C)(C)OC(=O)N1C[C@@H](n2cc(-c3ccc(O)cc3)c3c(N)ncnc32)C[C@@H]1CO`, the IC50 was found to be 3300 nM in assay [2] and 24 nM in assay [3].

For the compound `CCOC(=O)C[C@H]1C[C@@H](n2cc(-c3ccccc3)c3c(N)ncnc32)CN1C(=O)OC(C)(C)C`, in assay [3], the IC50 amounted to 5000 nM.

As to `COC(=O)CN1CCC(n2cc(-c3cccc(O)c3)c3c(N)ncnc32)CC1`, the IC50 was 800 nM in assay [1]; above 10000 nM in assay [5]; 400 nM in assay [2]; below 1 nM in assay [3]; 56 nM in assay [4].

`Nc1ncnc2c1c(-c1ccccc1)cn2[C@@H]1CN[C@@H](CO)C1` gave an IC50 in assay [3] of 300 nM.

For the compound `CCOC(=O)C[C@H]1C[C@H](n2cc(-c3ccccc3)c3c(N)ncnc32)CN1C(=O)OC(C)(C)C`, the 50% inhibitory concentration (IC50) in assay [3] amounted to 410 nM.

On to `COc1cccc(-c2cn(C3CCN(CC(=O)N(C)C)CC3)c3ncnc(N)c23)c1`, for which the IC50 is 750 nM in assay [1], above 5000 nM in assay [2] and 67 nM in assay [3].

Consider `COCCN(C)CCN1CCC(n2cc(-c3cccc(OC)c3)c3c(N)ncnc32)CC1`, for which the IC50 in assay [6] is 930 nM; in assay [5], above 10000 nM; in assay [2] it was 500 nM; in assay [3], 47 nM; in assay [4], 500 nM.

Consider `CC(C)(C)OC(=O)N1CCC(n2cc(-c3ccccc3)c3c(N)ncnc32)C1` (stereo not drawn), for which the IC50 in assay [1] is 8300 nM; in assay [2], above 5000 nM; in assay [3], 180 nM.
